Assay: xn = mol fraction of the nth substance listed
Conditions: 101 kPa, frequency 2 MHz

O=S(=O)([O-])C(F)(F)F.[Li+] + O=S(=O)([N-]S(=O)(=O)C(F)(F)F)C(F)(F)F.[Li+] + O
electrical conductivity [S/m]
Conditions	273 K	278 K	283 K	288.1 K	293 K	298.1 K
x2 = 0.001799, x1 = 0.0005943	0.413	0.475	0.542	0.615	0.693	0.778
x2 = 0.005377, x1 = 0.001799	0.96	1.114	1.28	1.47	1.67	1.89
x2 = 0.00893, x1 = 0.003054	1.38	1.606	1.86	2.134	2.434	–
x2 = 0.01246, x1 = 0.004127	1.716	2.004	2.323	2.67	3.05	–
x2 = 0.01596, x1 = 0.005377	1.99	2.33	2.704	3.116	3.56	–
x2 = 0.01944, x1 = 0.006623	2.219	2.6	3.017	3.48	3.98	–
x2 = 0.05129, x1 = 0.0177	2.96	3.47	4.041	4.67	5.346	–
x2 = 0.08265, x1 = 0.02921	2.59	3.039	3.538	4.09	4.68	–
x2 = 0.112, x1 = 0.04029	1.98	2.329	2.718	3.147	3.616	–
x2 = 0.1395, x1 = 0.05129	1.422	1.68	1.97	2.29	2.648	–
x2 = 0.1654, x1 = 0.06203	0.985	1.17	1.39	1.625	1.89	–
x2 = 0.1898, x1 = 0.07238	0.666	0.802	0.957	1.133	1.331	–
x2 = 0.2128, x1 = 0.08265	0.443	0.54	0.652	0.782	0.929	–
x2 = 0.2345, x1 = 0.0927	0.291	0.36	0.441	0.535	0.644	–
x2 = 0.2551, x1 = 0.1024	0.189	0.237	0.295	0.364	0.445	–
x2 = 0.2745, x1 = 0.112	0.121	0.155	0.196	0.246	0.305	–

Reference: the CheMixHub ionic liquid set
